Where two headings read alike, the source gives them in different places.
Assays:
[1] = Metabolic stability of compound 1; assay type: in vitro ADME
Text: We first analyzed compound 1 for physicochemical parameters such as the molecular weight, cLogP, polar surface area, freely rotatable bonds, hydrogen bond donors and acceptors and solubility at pH 2 and 6.5, as well as metabolic stability to evaluate its drug-likeness (Table 1). […] These “drug-like” physicochemical properties and the good synthetic accessibility of the scaffold further supported exploring the compound’s SAR to reveal valuable insights and guidance for drug developers.

[2] = test system: L. donovani in infected macrophages; parameters: method as in PMID 25740547; settings: cited from earlier work
[3] = test system: L. donovani amastigote/macrophages; parameters: method as in PMID 25740547; settings: GSK kinetoplastid high-throughput screen; cited from earlier work
HepG2 = test system: HepG2; parameters: method as in PMID 25740547; settings: GSK screen; read-out: CC50 against HepG2 cells; cited from earlier work
[4] = test system: intracellular L. donovani in THP-1 macrophage host cells; assay: THP-1 macrophage infection assay: anti L. donovani activity; settings: for SI (CC50/IC50): THP-1 CC50 / L. donovani IC50; for L. donovani growth inhibitory activity (in words): L. donovani in THP-1 macrophages
[5] = THP-1 macrophage infection assay: cytotoxicity to host cells; settings: human
[6] = test system: intracellular L. donovani in THP-1 macrophage host cells
[7] = Leishmania donovani, THP-1, read-out: IC50 (reduction of total number of parasites by 50%)

For Cn1c(CC(=O)NNC(=O)c2ccc3ccccc3n2)nc2ccccc21 [Compound 1, N′-(2-(1-Methyl-1H-benzo[d]imidazole-2-yl)acetyl)quinoline-2-carbohydrazide], the microsomal CLint ([1]; intrinsic clearance, read-out: metabolic stability Clint,in vitro) is given as 22 µL/min/mg, the half-life ([1]; read-out: metabolic stability half-life t1/2) is given as 1.33 h and the “pIC50 L. donovani in infected macrophages” value ([2]; GSK kinetoplastid high-throughput screen) is given as roughly 5.9. The IC50 ([2]; GSK screen, read-out: IC50 against L. donovani in infected macrophages) was roughly 1.3 µM, the “therapeutic window CC50/IC50 (selectivity for the parasite)” value ([2]; HepG2 CC50 / L. donovani IC50, GSK screen) was roughly 79 and the “pIC50 L. donovani imaging: amastigote/macrophages” value [3] was 6.1. For the same compound, the CC50 (HepG2) was roughly 100 µM, the IC50 [4, 7] was 1.9 µM and the “SI (CC50/IC50)” value [4] was greater than 54. The CC50 at 72 h [5] was greater than 100 µM.
With O=C(Cc1nc2ccccc2[nH]1)NNC(=O)c1ccc2ccccc2n1 [Compound 5a, N′-(2-(1H-Benzo[d]imidazole-2-yl)acetyl)quinoline-2-carbohydrazide] the IC50 [4, 7] was 5.9 µM, the “SI (CC50/IC50)” value [4] was greater than 17 and the CC50 at 72 h [5] was greater than 100 µM.
For O=C(Cc1nc2ccccc2s1)NNC(=O)c1ccc2ccccc2n1 [Compound 5b], the IC50 [4, 7] was greater than 100 µM and the CC50 at 72 h [5] was greater than 100 µM.
For O=C(Cc1nc2ccccc2o1)NNC(=O)c1ccc2ccccc2n1 [Compound 5c, N′-(2-(Benzo[d]oxazol-2-yl)acetyl)quinoline-2-carbohydrazide], the IC50 [4, 7] was 49 µM, the “SI (CC50/IC50)” value [4] was 1.1 and the CC50 at 72 h [5] was 54 µM.
In the case of Cn1c(CC(=O)NNC(=O)c2ccc3ccccc3c2)nc2ccccc21 [Compound 13a, N′-(2-(1-Methyl-1H-benzo[d]imidazole-2-yl)acetyl)-2-naphthohydrazide], the “L. donovani growth inhibitory activity (in words)” value [4] is reported as “completely lost their L. donovani growth inhibitory activity”, the IC50 [4, 7] is reported as greater than 100 µM and the CC50 at 72 h [5] is reported as greater than 100 µM.
With Cn1c(CC(=O)NNC(=O)c2ccccn2)nc2ccccc21 [Compound 13b, N′-(2-(1-Methyl-1H-benzo[d]imidazole-2-yl)acetyl)picolinohydrazide] the IC50 [4, 7] was 44 µM, the “SI (CC50/IC50)” value [4] was 1.4 and the CC50 at 72 h [5] was 62 µM.
In the case of Cn1c(CC(=O)NNC(=O)c2ccccc2)nc2ccccc21 [Compound 13c, N′-(2-(1-Methyl-1H-benzo[d]imidazole-2-yl)acetyl)benzohydrazide], the “L. donovani growth inhibitory activity (in words)” value [4] is reported as “completely lost their L. donovani growth inhibitory activity”, the IC50 [4, 7] is reported as greater than 100 µM and the CC50 at 72 h [5] is reported as greater than 100 µM.
In the case of Cn1c(CC(=O)NNC(=O)c2cccc(-c3ccccc3)n2)nc2ccccc21 [Compound 13d, N′-(2-(1-Methyl-1H-benzo[d]imidazole-2-yl)acetyl)-6-phenylpicolinohydrazide], the IC50 [4, 7] is reported as 20 µM and the CC50 at 72 h [5] is reported as greater than 100 µM.
For Cn1c(CC(=O)NNC(=O)c2ccc(-c3ccccc3)cn2)nc2ccccc21 [Compound 13e, N′-(2-(1-Methyl-1H-benzo[d]imidazole-2-yl)acetyl)-5-phenylpicolinohydrazide], the IC50 [4, 7] was 1.7 µM, the “SI (CC50/IC50)” value [4] was 29 and the CC50 at 72 h [5] was 49 µM.
For Cn1c(CC(=O)NNC(=O)c2ccc(-c3ccccc3Cl)cn2)nc2ccccc21 [Compound 17a, 5-(2-Chlorophenyl)-N′-(2-(1-methyl-1H-benzo[d]imidazole-2-yl)acetyl)picolinohydrazide], the IC50 [4, 7] was 1 µM, the “SI (CC50/IC50)” value [4] was greater than 103 and the CC50 at 72 h [5] was greater than 100 µM.
With Cn1c(CC(=O)NNC(=O)c2ccc(-c3cccc(Cl)c3)cn2)nc2ccccc21 [Compound 17b, 5-(3-Chlorophenyl)-N′-(2-(1-methyl-1H-benzo[d]imidazole-2-yl)acetyl)picolinohydrazide] the IC50 [4, 7] was 1 µM, the “SI (CC50/IC50)” value [4] was 94 and the CC50 at 72 h [5] was 94 µM.
For Cn1c(CC(=O)NNC(=O)c2ccc(-c3ccc(Cl)cc3)cn2)nc2ccccc21 [Compound 17c, 5-(4-Chlorophenyl)-N′-(2-(1-methyl-1H-benzo[d]imidazole-2-yl)acetyl)picolinohydrazide], the IC50 [4, 7] was 1 µM, the “SI (CC50/IC50)” value [4] was 74 and the CC50 at 72 h [5] was 73 µM.
For Cn1c(CC(=O)NNC(=O)c2ccc(-c3cccc(C#N)c3)cn2)nc2ccccc21 [Compound 17d, 5-(3-Cyanophenyl)-N′-(2-(1-methyl-1H-benzo[d]imidazole-2-yl)acetyl)picolinohydrazide], the IC50 [4, 7] was 1.4 µM, the “SI (CC50/IC50)” value [4] was greater than 74 and the CC50 at 72 h [5] was greater than 100 µM.
For Cn1c(CC(=O)NNC(=O)c2ccc(-c3ccc(C#N)cc3)cn2)nc2ccccc21 [Compound 17e, 5-(4-Cyanophenyl)-N′-(2-(1-methyl-1H-benzo[d]imidazole-2-yl)acetyl)picolinohydrazide], the IC50 [4, 7] was 0.8 µM, the “SI (CC50/IC50)” value [4] was 120 and the CC50 at 72 h [5] was 96 µM.
In the case of COc1ccccc1-c1ccc(C(=O)NNC(=O)Cc2nc3ccccc3n2C)nc1 [Compound 17f, 5-(2-Methoxyphenyl)-N′-(2-(1-methyl-1H-benzo[d]imidazole-2-yl)acetyl)picolinohydrazide], the IC50 [4, 7] is reported as 0.6 µM, the “SI (CC50/IC50)” value [4] is reported as 32 and the CC50 at 72 h [5] is reported as 19 µM.
For COc1cccc(-c2ccc(C(=O)NNC(=O)Cc3nc4ccccc4n3C)nc2)c1 [Compound 17g, 5-(3-Methoxyphenyl)-N′-(2-(1-methyl-1H-benzo[d]imidazole-2-yl)acetyl)picolinohydrazide], the IC50 [4, 7] was 0.6 µM, the “SI (CC50/IC50)” value [4] was greater than 172 and the CC50 at 72 h [5] was greater than 100 µM.
For COc1ccc(-c2ccc(C(=O)NNC(=O)Cc3nc4ccccc4n3C)nc2)cc1 [Compound 17h, 5-(4-Methoxyphenyl)-N′-(2-(1-methyl-1H-benzo[d]imidazole-2-yl)acetyl)picolinohydrazide], the IC50 [4, 7] was 0.7 µM, the “SI (CC50/IC50)” value [4] was greater than 145 and the CC50 at 72 h [5] was greater than 100 µM.
With Cc1ccccc1-c1ccc(C(=O)NNC(=O)Cc2nc3ccccc3n2C)nc1 [Compound 17i, N′-(2-(1-Methyl-1H-benzo[d]imidazole-2-yl)acetyl)-5-(o-tolyl)picolinohydrazide] the IC50 [4, 7] was 0.4 µM, the “SI (CC50/IC50)” value [4] was 168 and the CC50 at 72 h [5] was 67 µM.
With Cc1cccc(-c2ccc(C(=O)NNC(=O)Cc3nc4ccccc4n3C)nc2)c1 [Compound 17j, N′-(2-(1-Methyl-1H-benzo[d]imidazole-2-yl)acetyl)-5-(m-tolyl)picolinohydrazide] the IC50 [4, 7] was 0.3 µM, the “SI (CC50/IC50)” value [4] was 173 and the CC50 at 72 h [5] was 52 µM.
For Cc1ccc(-c2ccc(C(=O)NNC(=O)Cc3nc4ccccc4n3C)nc2)cc1 [Compound 17k, N′-(2-(1-Methyl-1H-benzo[d]imidazole-2-yl)acetyl)-5-(p-tolyl)picolinohydrazide], the IC50 [4, 7] was 0.2 µM, the “SI (CC50/IC50)” value [4] was greater than 500 and the CC50 at 72 h [5] was greater than 100 µM.
In the case of “N′-(2-(Imidazole-2-yl)acetyl)quinoline-2-carbohydrazide [Compound 12]”, the “SI (CC50/IC50)” value [6] is reported as 0.7, the CC50 (THP-1 macrophages) is reported as 33 µM and the Complete parasite clearance ([4]; L. donovani in THP-1 macrophage host cells, 10-point curve, top 100 μM, duplicates, n = 1) is reported as greater than 100 µM. It also gave an IC50 ([4]; read-out: IC50 (reduction of total number of parasites by 50%), L. donovani in THP-1 macrophage host cells, 10-point curve, 2× serial dilution, top 100 μM, duplicates, n = 1) of 45 µM.

— publication PMC11375810, “Novel Diacyl-hydrazide Compounds as Potential Therapeutics for Visceral Leishmaniasis” (ACS Omega, 2024)
